Laboratory results as given in paper PMC11582173, “Synthesis, cytotoxicity, anti-inflammatory, anti-metastatic and anti-oxidant activities of novel chalcones incorporating 2-phenoxy-N-arylacetamide and thiophene moieties: induction of apoptosis in MCF7 and HEP2 cells” (Naunyn-Schmiedeberg's Archives of Pharmacology, 2024).

Key:
[1] = test system: normal African Green monkey kidney cell line (VERO); assay: SRB cytotoxic assay, VERO normal cells; type: cell-based; conditions: Chlorocebus sabaeus, single dose 100 µg/mL, 48 h, read-out: %Inhibition at100 µg/mL VERO
Experimental: All the prepared compounds were screened at a concentration of 100 µg/mL against six different human cell lines: human laryngeal carcinoma (HEP2), human colorectal carcinoma (HCT116), human breast carcinoma (MCF7), human Lung carcinoma (A549), human liver carcinoma (HEPG2), and normal African Green monkey kidney cell line (VERO). Doxorubicin was used as a positive control for comparison purposes.
The human laryngeal carcinoma (HEP2), colorectal carcinoma (HCT116), breast carcinoma (MCF7), Lung carcinoma (A549), liver carcinoma (HEPG2), and normal African Green monkey kidney cell line (VERO) were purchased from American Tissue Culture Collection (Rockville, MD, USA). The cells were treated for 48 h with a single dose (100 µg/mL) of all the tested chalcones. […] In brief, the cells were seeded in a 96-well microtiter plate at a concentration of 5×10^3 cells/well in 100 µL fresh RPMI-1640 medium and left to attach to the plates for 24 h. Then, cells were incubated with 100 μL of different concentrations (50, 25, 12.5, 6.25, and 0.0 µg/mL) of 5c in triplicate at 37 °C for 48 h. After that, the cells were fixed with 10 µL cold 100% Trichloroacetic acid (TCA) for 1h at 4 °C. The wells were then washed 1 time with distilled water using (automatic Tecan washer, Germany) and stained for 30 min at room temperature with 50 µL 0.4% SRB dissolved in 1% acetic acid. The plates were air-dried and the dye was solubilized with 100 µl/well of 1M tris base (pH 10.5) for 5 min. The optical density (O.D.) of each well was measured spectrophotometrically at 570 nm with an ELISA microplate reader (Sunrise Tecan reader, Germany) with automatic shaking for 30 seconds before reading. The mean background absorbance was subtracted automatically and mean values for each drug concentration were calculated. The percentage of cell survival was calculated as follows: Survival fraction= O.D. (treated cells)/ O.D. (control cells) (Bhat et al. [2023]).

[2] = test system: COX-2 gene; assay: Real-time PCR, COX-2 gene expression; type: cell-based, human; conditions: relative to untreated control (1)
Experimental: The expression level of the following six genes (Ki-67, Survivin, Interleukin-1 beta (IL-1B), Interleukin-6 (IL-6), Cyclooxygenase-2 (COX-2) and protein kinase B (AKT1)) was determined in MCF7 and HEP2 treated with the IC50 of compound 5c. The untreated cells were used as a negative control for comparison purposes. […] Ki-67 is a popular proliferation marker for human tumor cells. […] Survivin is an inhibitor of apoptotic protein (IAP) family member, which is essential for cell division. The lowering of the expression of survivin inhibited tumor development, triggered apoptosis, and made tumor cells more susceptible to radiation and chemotherapy (Albadari and Li [2023]). […] IL-1B is a pleiotropic mediator of inflammation, which is produced in response to a variety of stressors (Aarreberg et al. [2019]). […] IL-6 is a pro-inflammatory cytokine that plays a significant role in the proliferation and differentiation of human cells. It promotes the production of numerous proteins involved in acute inflammation (Uciechowski and Dempke [2020]). […]
The expression level of the following six genes (Ki-67, survivin, AKT1, IL-6, COX2, and IL-1B) was examined using real-time polymerase chain reaction (qPCR) (Mohamed et al. [2023a]). […] The cycle threshold (Ct) was determined automatically. […]

COc1ccc(NC(=O)COc2ccc(C=CC(=O)c3cccs3)cc2)cc1 [Compound 5c, N-(4-Methoxyphenyl)-2-(4-(3-oxo-3-(thiophen-2-yl)prop-1-en-1-yl)phenoxy)acetamide] showed an inhibition at 100 µg/mL [1] of 58 ± 1.5%, a COX2 expression folding ([2]; HEP2 cells treated with IC50 of 5c) of 0.547±0.0321 fold and a COX2 expression folding ([2]; MCF7 cells treated with IC50 of 5c) of 0.502±0.073 fold.
